These are literature values, as cited in patent publication US20110105600A1, “SYNERGISTIC COMPOSITION OF (-)-HYDROXYCITRIC ACID WITH MONOTERPENE AND A METHOD TO ENHANCE SATIETY” (Glykon Technologies Group, LLC, priority 2009, published 2011).

For data set [1] the following is noted: end of eight weeks; 2,800 mg/HCA per day in capsules.
The conditions of data set [2]: single large oral dose or two divided oral doses; animals fed a high-sugar diet.
Assay in data set [3]: not given
This is another data set of the same source.

The conditions of data set [4]: 40 oz of Mediterranean-style lemonade containing 596 mg d-limonene.
For data set [5] the following is noted: humans; dosage related to total body surface area.

Consider `O=C(O)CC(O)(C(=O)O)C(O)C(=O)O` (single isomer, unassigned; (-)) [HCA, (−)-hydroxycitric acid], for which the decrease in appetite entry in data set [1] was “approximately 15.6%”. Also, the “reduction in food consumption” value in data set [2] was at least 10%. Moreover, the “decrease in food intake” value (900 mg HCA dissolved in 100 ml tomato juice, 2-week period) is reported as 15-30%. Also, for the setting “900 mg/day, two weeks”, the reduction in appetite was 15-30%. Besides, the weight loss result (2-week period) is “no significant weight loss”.

Take `C=C(C)[C@H]1CC=C(C)CC1` [d-limonene]: in data set [3] (oral dose of 100 mg/kg), the “duration of slight fatigue and eructation” value is “four”. In addition, in data set [3] (oral dose of 100 mg/kg (bolus of 7 grams for a 70 kg human)), the “duration of mild satiety” value was 10 h. In data set [4], the “time to maximal blood concentrations of perillyl alcohol” value was “one”.

With `CC(C)=CCC/C(C)=C/CO` [geraniol], the “acute oral LD50” value in the data set with rat is 3,600 mg/kg body weight.

With `CC(C)=CCC/C(C)=C\CO` [nerol], the “acute oral LD50” value in the data set with rat is 4,500 mg/kg body weight.

Regarding `C=C(C)[C@@H]1CC=C(CO)CC1` [perillyl alcohol], the maximum tolerated dose in data set [5] is listed as 8400 mg/m^2 per day.
